As a reminder, the IC50 is the point on the concentration scale where inhibition reaches its midpoint.

In the experiment the target is T1, His-tagged full-length RSK2 (RPS6KA3) (Homo sapiens, UniProt P51812).
T1 construct: His-tagged full-length RSK2 (RPS6KA3, Invitrogen PV3323); His; purchased Invitrogen PV3323
T1 sequence (P51812 whole entry): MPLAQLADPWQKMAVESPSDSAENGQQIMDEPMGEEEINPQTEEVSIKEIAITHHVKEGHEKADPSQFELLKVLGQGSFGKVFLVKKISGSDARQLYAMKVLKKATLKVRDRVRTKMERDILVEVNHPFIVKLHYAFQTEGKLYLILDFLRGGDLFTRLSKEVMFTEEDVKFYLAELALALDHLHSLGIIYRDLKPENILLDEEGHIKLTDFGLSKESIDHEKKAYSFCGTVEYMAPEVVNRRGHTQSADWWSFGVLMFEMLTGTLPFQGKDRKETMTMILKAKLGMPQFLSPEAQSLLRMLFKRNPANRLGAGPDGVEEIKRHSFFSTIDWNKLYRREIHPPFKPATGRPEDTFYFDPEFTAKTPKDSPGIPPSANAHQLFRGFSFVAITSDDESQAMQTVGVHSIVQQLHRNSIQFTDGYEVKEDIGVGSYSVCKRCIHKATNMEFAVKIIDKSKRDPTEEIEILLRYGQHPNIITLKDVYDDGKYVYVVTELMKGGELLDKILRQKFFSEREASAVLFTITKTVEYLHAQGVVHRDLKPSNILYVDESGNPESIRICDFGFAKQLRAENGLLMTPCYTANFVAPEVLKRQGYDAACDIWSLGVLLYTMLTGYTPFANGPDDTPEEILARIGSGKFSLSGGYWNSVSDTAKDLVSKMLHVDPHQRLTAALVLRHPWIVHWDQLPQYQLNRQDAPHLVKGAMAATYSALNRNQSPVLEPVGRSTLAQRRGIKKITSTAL
Put plainly: RSK2 Omnia Assay for compound IC50 determination. It counts as biochemical. The settings on record: ATP 15 μM, n=2, read-out: Mean RSK2 Biochem IC50. Summed up: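 Initial-rate slopes from continuous kinetic reads were fitted to a four-parameter equation for IC50 (n=2). Ki was then derived by Cheng-Prusoff assuming ATP-competitive inhibition. Reactions contained 15 μM ATP (Km 16.3 μM), 5 μM Omnia ST Peptide 6, and […] in 50 mM HEPES pH 7.5, 10 mM MgCl2, 1 mM DTT, 1% DMSO. Compounds spanned 11 threefold steps, […] final.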
`C[C@@H]1C(=O)N(c2cccc(C#N)c2)c2cnc(Nc3cc(F)c4[nH]ncc4c3)nc2N1[C@H]1CC[C@H](C)CC1` [compound 237, 3-[(7R)-2-[(7-fluoro-1H-indazol-5-yl)amino]-7-methyl-8-(trans-4-methylcyclohexyl)-6-oxo-7,8-dihydropteridin-5(6H)-yl]benzonitrile]: the IC50 is no more than 100 nM.
For `COc1ccc(N2C(=O)[C@@H](C)N([C@H]3CC[C@@H](C)CC3)c3nc(Nc4cc(F)c5[nH]ncc5c4)ncc32)cc1OC` [compound 238, (7R)-5-(3,4-dimethoxyphenyl)-2-[(7-fluoro-1H-indazol-5-yl)amino]-7-methyl-8-(cis-4-methylcyclohexyl)-7,8-dihydropteridin-6(5H)-one] the value was no more than 100 nM; for `COc1ccc(N2C(=O)[C@@H](C)N([C@H]3CC[C@H](C)CC3)c3nc(Nc4cc(F)c5[nH]ncc5c4)ncc32)cc1OC` [compound 239, (7R)-5-(3,4-dimethoxyphenyl)-2-[(7-fluoro-1H-indazol-5-yl)amino]-7-methyl-8-(trans-4-methylcyclohexyl)-7,8-dihydropteridin-6(5H)-one], no more than 100 nM; for `C[C@@H]1C(=O)N(c2cccnc2)c2cnc(Nc3cc(F)c4[nH]ncc4c3)nc2N1[C@H]1CC[C@@H](C)CC1` [compound 240, (7R)-2-[(7-fluoro-1H-indazol-5-yl)amino]-7-methyl-8-(cis-4-methylcyclohexyl)-5-(pyridin-3-yl)-7,8-dihydropteridin-6(5H)-one], no more than 100 nM.
For the compound `C[C@@H]1C(=O)N(c2ccc(N3CCN(C)CC3)nc2)c2cnc(Nc3cc(F)c4[nH]ncc4c3)nc2N1[C@H]1CC[C@H](C)CC1` [compound 242, (7R)-2-[(7-fluoro-1H-indazol-5-yl)amino]-7-methyl-8-(trans-4-methylcyclohexyl)-5-[6-(4-methylpiperazin-1-yl)pyridin-3-yl]-7,8-dihydropteridin-6(5H)-one], the IC50 is no more than 100 nM.
For `C[C@@H]1C(=O)N(c2cccc(C#N)c2)c2cnc(Nc3cc(F)c(O)c(F)c3)nc2N1[C@H]1CC[C@H](C)CC1` [compound 243, 3-[(7R)-2-[(3,5-difluoro-4-hydroxyphenyl)amino]-7-methyl-8-(trans-4-methylcyclohexyl)-6-oxo-7,8-dihydropteridin-5(6H)-yl]benzonitrile] the value was no more than 100 nM; for `COc1ccc(N2C(=O)[C@@H](C)N([C@H]3CC[C@H](C)CC3)c3nc(Nc4ccc5[nH]c(=O)oc5c4)ncc32)cc1C#N` [compound 244, 2-methoxy-5-[(7R)-7-methyl-8-(trans-4-methylcyclohexyl)-6-oxo-2-[(2-oxo-2,3-dihydro-1,3-benzoxazol-6-yl)amino]-7,8-dihydropteridin-5(6H)-yl]benzonitrile], no more than 100 nM; for `COc1ccc(N2C(=O)[C@@H](C)N([C@H]3CC[C@H](C)CC3)c3nc(Nc4cnc5[nH]ncc5c4)ncc32)cc1C#N` [compound 245, 2-Methoxy-5-[(7R)-7-methyl-8-(trans-4-methylcyclohexyl)-6-oxo-2-(1H-pyrazolo[3,4-b]pyridin-5-ylamino)-7,8-dihydropteridin-5(6H)-yl]benzonitrile], no more than 100 nM.
With `CCOc1ccc(N2C(=O)[C@@H](C)N([C@H]3CC[C@H](C)CC3)c3nc(Nc4cnc5[nH]ncc5c4)ncc32)cc1C#N` [compound 246, 2-Ethoxy-5-[(7R)-7-methyl-8-(trans-4-methylcyclohexyl)-6-oxo-2-(1H-pyrazolo[3,4-b]pyridin-5-ylamino)-7,8-dihydropteridin-5(6H)-yl]benzonitrile], the IC50 was no more than 100 nM.
For `CCOc1ccc(N2C(=O)[C@@H](C)N([C@H]3CC[C@H](C)CC3)c3nc(Nc4ccc5[nH]c(=O)oc5c4)ncc32)cc1C#N` [compound 247, 2-Ethoxy-5-[(7R)-7-methyl-8-(trans-4-methylcyclohexyl)-6-oxo-2-[(2-oxo-2,3-dihydro-1,3-benzoxazol-6-yl)amino]-7,8-dihydropteridin-5(6H)-yl]benzonitrile] the value was no more than 100 nM; for `CC(C)Oc1ccc(N2C(=O)[C@@H](C)N([C@H]3CC[C@H](C)CC3)c3nc(Nc4cnc5[nH]ncc5c4)ncc32)cc1C#N` [compound 248, 5-[(7R)-7-methyl-8-(trans-4-methylcyclohexyl)-6-oxo-2-(1H-pyrazolo[3,4-b]pyridin-5-ylamino)-7,8-dihydropteridin-5(6H)-yl]-2-(propan-2-yloxy)benzonitrile], no more than 100 nM.
The value for `CC(C)Oc1ccc(N2C(=O)[C@@H](C)N([C@H]3CC[C@H](C)CC3)c3nc(Nc4ccc5[nH]c(=O)oc5c4)ncc32)cc1C#N` [compound 249, 5-[(7R)-7-methyl-8-(trans-4-methylcyclohexyl)-6-oxo-2-[(2-oxo-2,3-dihydro-1,3-benzoxazol-6-yl)amino]-7,8-dihydropteridin-5(6H)-yl]-2-(propan-2-yloxy)benzonitrile] was no more than 100 nM; that for `C[C@@H]1C(=O)N(c2cccc(C#N)c2)c2cnc(Nc3ccc4c(c3)CS(=O)(=O)N4)nc2N1[C@H]1CC[C@H](C)CC1` [compound 250, 3-[(7R)-2-[(2,2-dioxido-1,3-dihydro-2,1-benzothiazol-5-yl)amino]-7-methyl-8-(trans-4-methylcyclohexyl)-6-oxo-7,8-dihydropteridin-5(6H)-yl]benzonitrile] was 100 to 1000 nM.
The value for `C[C@@H]1C(=O)N(c2ccc(N3CCN(C)CC3)c(C#N)c2)c2cnc(Nc3cc(F)c4[nH]ncc4c3)nc2N1[C@H]1CC[C@H](C)CC1` [compound 251, 5-[(7R)-2-[(7-fluoro-1H-indazol-5-yl)amino]-7-methyl-8-(trans-4-methylcyclohexyl)-6-oxo-7,8-dihydropteridin-5(6H)-yl]-2-(4-methylpiperazin-1-yl)benzonitrile] was no more than 100 nM.
Take `C[C@@H]1C(=O)N(c2ccc(N3CCN(C)CC3)c(C#N)c2)c2cnc(Nc3cnc4[nH]ncc4c3)nc2N1[C@H]1CC[C@H](C)CC1` [compound 252, 5-[(7R)-7-methyl-8-(trans-4-methylcyclohexyl)-6-oxo-2-(1H-pyrazolo[3,4-b]pyridin-5-ylamino)-7,8-dihydropteridin-5(6H)-yl]-2-(4-methylpiperazin-1-yl)benzonitrile]: the IC50 was no more than 100 nM.
For `C[C@@H]1C(=O)N(c2cccnc2)c2cnc(Nc3cc(F)c4[nH]ncc4c3)nc2N1[C@H]1CC[C@@H](C(F)(F)F)CC1` [compound 255, (7R)-2-[(7-fluoro-1H-indazol-5-yl)amino]-7-methyl-5-(pyridin-3-yl)-8-[cis-4-(trifluoromethyl)cyclohexyl]-7,8-dihydropteridin-6(5H)-one] the value was no more than 100 nM; for `C[C@@H]1C(=O)N(c2cccnc2)c2cnc(Nc3cc(F)c4[nH]ncc4c3)nc2N1[C@H]1CC[C@H](C(F)(F)F)CC1` [compound 256], no more than 100 nM.
Regarding `COc1ccc(N2C(=O)[C@@H](C)N([C@H]3CC[C@@H](C(F)(F)F)CC3)c3nc(Nc4cc(F)c5[nH]ncc5c4)ncc32)cc1OC` [compound 257, (7R)-5-(3,4-dimethoxyphenyl)-2-[(7-fluoro-1H-indazol-5-yl)amino]-7-methyl-8-[cis-4-(trifluoromethyl)cyclohexyl]-7,8-dihydropteridin-6(5H)-one], the 50% inhibitory concentration (IC50) is no more than 100 nM.
The value for `COc1ccc(N2C(=O)[C@@H](C)N([C@H]3CC[C@H](C(F)(F)F)CC3)c3nc(Nc4cc(F)c5[nH]ncc5c4)ncc32)cc1OC` [compound 258, (7R)-5-(3,4-dimethoxyphenyl)-2-[(7-fluoro-1H-indazol-5-yl)amino]-7-methyl-8-[trans-4-(trifluoromethyl)cyclohexyl]-7,8-dihydropteridin-6(5H)-one] was no more than 100 nM; that for `C[C@@H]1C(=O)N(c2cccc(C#N)c2)c2cnc(Nc3cc(F)c(O)c(F)c3)nc2N1[C@H]1CC[C@H](C(F)(F)F)CC1` [compound 259, 3-[(7R)-2-[(3,5-difluoro-4-hydroxyphenyl)amino]-7-methyl-6-oxo-8-[trans-4-(trifluoromethyl)cyclohexyl]-7,8-dihydropteridin-5(6H)-yl]benzonitrile] was no more than 100 nM; that for `C[C@@H]1C(=O)N(c2cccc(C#N)c2)c2cnc(Nc3ccc4[nH]ncc4c3)nc2N1C1CCC(F)(F)CC1` [compound 261, 3-[(7R)-8-(4,4-difluorocyclohexyl)-2-(1H-indazol-5-ylamino)-7-methyl-6-oxo-7,8-dihydropteridin-5(6H)-yl]benzonitrile] was no more than 100 nM.
Regarding `COc1ccc(N2C(=O)[C@@H](C)N(C3CCC(F)(F)CC3)c3nc(Nc4cc(F)c5[nH]ncc5c4)ncc32)cc1OC` [compound 262, (7R)-8-(4,4-difluorocyclohexyl)-5-(3,4-dimethoxyphenyl)-2-[(7-fluoro-1H-indazol-5-yl)amino]-7-methyl-7,8-dihydropteridin-6(5H)-one], the IC50 was no more than 100 nM.
The value for `C[C@@H]1C(=O)N(c2cccc(F)c2)c2cnc(Nc3cc(F)c4[nH]ncc4c3)nc2N1C1CCC(F)(F)CC1` [compound 263, (7R)-8-(4,4-difluorocyclohexyl)-2-[(7-fluoro-1H-indazol-5-yl)amino]-5-(3-fluorophenyl)-7-methyl-7,8-dihydropteridin-6(5H)-one] was no more than 100 nM; that for `C[C@@H]1C(=O)N(c2cccnc2)c2cnc(Nc3cc(F)c4[nH]ncc4c3)nc2N1C1CCC(F)(F)CC1` [compound 264, (7R)-8-(4,4-difluorocyclohexyl)-2-[(7-fluoro-1H-indazol-5-yl)amino]-7-methyl-5-(pyridin-3-yl)-7,8-dihydropteridin-6(5H)-one] was no more than 100 nM.
For `C[C@@H]1C(=O)N(c2cccc(C#N)c2)c2cnc(Nc3ccc4[nH]c(=O)[nH]c4c3)nc2N1C1CCC(F)(F)CC1` [compound 265, 3-[(7R)-8-(4,4-difluorocyclohexyl)-7-methyl-6-oxo-2-[(2-oxo-2,3-dihydro-1H-benzimidazol-5-yl)amino]-7,8-dihydropteridin-5(6H)-yl]benzonitrile] the value was greater than 1000 nM.
